Measured values taken from patent US8722070B2, “Active compound combinations having insecticidal and acaricidal properties” (Bayer CropScience AG, priority 2000, dated 2014).

How the values were obtained:
[1] = tested on: cotton aphid (Aphis gossypii); assay: Aphis gossypii test (cotton leaves dipped into the preparation of active compound); format: in vivo; settings: individual active compound, 1.6 ppm, cotton leaves (Gossypium hirsutum)
From the text: (§1) The expected action for a given combination of two active compounds can be calculated as follows, using the formula of S. R. Colby, Weeds 15 (1967), 20-22):
(§2) • X is the kill rate, expressed as a percentage of the untreated control, when employing active compound A at an application rate of m g/ha or in a concentration of m ppm, • Y is the kilt rate, expressed as a percentage of the untreated control, when employing active compound B at an application rate of n g/ha or in a concentration of n ppm and • E is the kill rate, expressed as a percentage of the untreated control, when employing active compounds A and B at application rates of m and n g/ha or in a concentration of m and n ppm, then
(§3) If the actual insecticidal kill rate exceeds the calculated value, the action of the combination is superadditive, i.e. a synergistic effect is present. In this case, the actually observed kill rate must exceed the value calculated using the above formula for the expected kill rate (E).
(§4) After the desired period of time, the kill rate in % is determined. 100% means that all the animals have been killed; 0% means that none of the animals has been killed.
(§5) Solvent: 3 parts by weight of dimethylformamide
(§6) Emulsifier: 1 part by weight of alkylaryl polyglycol ether […]
After the desired period of time, the kill in % is determined. […] The kill rates that are determined are calculated using Colby formula.

[2] = tested on: peach aphid (Myzus persicae); assay: Myzus test (cabbage leaves dipped into the preparation of active compound); format: in vivo; settings: individual active compound, 1.6 ppm, cabbage leaves (Brassica oleracea)
From the text: as §1, §2, §3, §4, §5, §6
After the desired period of time, the kill in % is determined. […] The kill rates determined are calculated using Colby's formula.

CC1(C)C(C=C(Cl)Cl)C1C(=O)OC(C#N)c1ccc(F)c(Oc2ccccc2)c1 (centres unmarked) [cyfluthrin, Cyfluthrin]
Kill rates in % after 6d [1]: 75% | Kill rates in % after 1d [2]: 25%
